Reference: PubChem BioAssay (NCI)
Where “and” joins values, the source holds several entries; their conditions need not be identical. Equal entries are not always repeated.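 In this assay, cells in 96-well plates receive the compound at five concentrations for 48 hours. Endpoints are linearly interpolated between the surrounding concentrations. GI50 is the concentration that inhibits growth by half. TGI marks complete inhibition of growth.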

Tests used:
Test in all cases: NCI-60 cell line screen, 48 h
K-562 leukemia = system: K-562 leukemia
NCI-H460 lung = system: NCI-H460 lung
EKVX NSCLC = system: EKVX NSCLC
HOP-62 NSCLC = system: HOP-62 NSCLC
SK-OV-3 ovarian = system: SK-OV-3 ovarian
TK-10 renal = system: TK-10 renal
HL-60(TB) leukemia = system: HL-60(TB) leukemia
A549 NSCLC = system: A549 NSCLC
NCI-H226 lung = system: NCI-H226 lung
CAKI-1 renal = system: CAKI-1 renal

Row | Structure (SMILES) | TGI (K-562 leukemia) | TGI (NCI-H460 lung) | TGI (EKVX NSCLC) | TGI (HOP-62 NSCLC) | TGI (SK-OV-3 ovarian) | TGI (TK-10 renal) | TGI (HL-60(TB) leukemia) | TGI (A549 NSCLC) | TGI (NCI-H226 lung) | TGI (CAKI-1 renal) | GI50 (K-562 leukemia) | GI50 (NCI-H460 lung) | GI50 (EKVX NSCLC) | GI50 (HOP-62 NSCLC) | GI50 (SK-OV-3 ovarian) | GI50 (TK-10 renal) | GI50 (HL-60(TB) leukemia) | GI50 (A549 NSCLC) | GI50 (NCI-H226 lung) | GI50 (CAKI-1 renal)
1 | COc1ccc(Cc2cc(OC)c(OC)c(OC)c2)cc1 | 22 µM | 47 µM | > 100 µM | > 100 µM | 23.2 µM | > 100 µM | 0.308 µM | > 100 µM | 12 µM | > 51.7 µM |  |  |  |  |  |  |  |  |  | 
2 | CCOC(=O)C1=C(C)NC(C)=C(C(=O)OCCNC(=O)c2ccc(N=[N+]=[N-])cc2)C1c1ccccc1C(F)(F)F (centres undefined) | 21.5 µM | 21.5 µM | 21.5 µM | > 21.5 µM | 21.5 µM | 31.1 µM | 14.7 µM | 21.5 µM | 21.5 µM | 21.5 µM |  |  |  |  |  |  |  |  |  | 
3 | Cc1cc(I)cc(CNCCN2CCOCC2)c1O | > 100 µM | > 100 µM | > 100 µM | > 100 µM | > 100 µM | > 100 µM | > 100 µM | > 100 µM | > 100 µM | > 100 µM | 87.5 µM | 52.8 µM | 24.3 µM | 29.4 µM | > 100 µM | > 100 µM | > 100 µM | > 100 µM | > 100 µM | > 100 µM
4 | C=C1C[C@@H](O)[C@@H](Br)C(C)(C)[C@]12CCC(C)(Br)C(Cl)C2 (some centres undefined) | > 50 µM and 42.4 µM | > 50 µM and 32.4 µM | 50 µM and 15.2 µM | > 50 µM and 35.9 µM | > 50 µM and 64.6 µM | > 50 µM and 29.8 µM | 11.8 µM | > 50 µM and 37.7 µM | 50 µM and 29.9 µM | > 50 µM and 37.2 µM | 19.2 µM | 18 µM | 2.54 µM | 15.4 µM | 24 µM | 15.7 µM |  | 16.7 µM | 15.6 µM | 18.3 µM
5 | COc1cc(N2CCN(C(C)C)CC2)ccc1Nc1nc(Nc2ccc(F)cc2C(=O)NCC(O)CO)c2cc[nH]c2n1 (centres undefined) | > 25 µM | 19.4 µM | > 25 µM | > 25 µM | > 25 µM | > 25 µM | 13.6 µM | > 25 µM | 19.9 µM | > 25 µM | > 19.9 µM | 6.05 µM | > 13.8 µM | 4.09 µM | 6.85 µM | 11.9 µM | 1.08 µM | 5.76 µM | 5.04 µM | > 25 µM
6 | CC(C)n1nc(C#Cc2cccc(O)c2)c2c(N)ncnc21 | 50 µM and > 100 µM | 9.9 µM and 13.1 µM | 29 µM and 25.7 µM | 4.31 µM and 5 µM | 3.67 µM | 10.1 µM and 5.05 µM | 10.8 µM and 20.2 µM | 18.3 µM and 14.6 µM | 21.1 µM and 6.02 µM | 6.06 µM and 6.87 µM | 0.0636 µM and 0.0283 µM | 1.34 µM and 1.13 µM | 9.41 µM and 7.49 µM | 1.18 µM and 1.3 µM | 0.978 µM and 1.01 µM | 2.57 µM and 2.03 µM | 0.832 µM and 0.217 µM | 2.62 µM and 3.17 µM | 3.81 µM and 1.37 µM | 1.66 µM and 1.59 µM
